Experimental data from article PMC12024264, “Frog Skin Peptides Hylin-a1, AR-23, and RV-23: Promising Tools Against Carbapenem-Resistant Escherichia coli and Klebsiella pneumoniae Infections” (Antibiotics, 2025).
Converted amounts (≈) assume the structure as drawn. Read-outs that look alike come from different tables or passages of the source.

What was measured:
E. coli 716 = assay: Antibiotic resistance profile of clinical isolate (Table S1); type: cell-based, Escherichia coli
Description: (§1) Each strain was grown in Mueller Hinton Broth (MH Broth), and 5 × 10^5 CFU/mL was used to evaluate antibacterial activity. Clinical carbapenem-resistant K. pneumoniae and E. coli isolates were collected at the AOU of Virology and Microbiology of the University of Campania “Luigi Vanvitelli”. […]
(§2) Table S1. Antibiotic resistance profile of K. pneumoniae and E. coli clinical isolates . MIC: Minimum Inhibitory
(§3) Concentration was expressed in µg/mL; S: Sensible; I: Intermediate; R: Resistant.
(§4) Antibiotic Resistance Profile of the Clinical Isolated Bacteria
(§5) Antibiotics MIC (µg/mL) Interpretation […]

E. coli 2267 = assay: as above; type: cell-based, Escherichia coli; conditions: Table S1, E. coli 2267
Description: as §1, §2, §3, §4, §5

E. coli 1441 = assay: as above; type: cell-based, Escherichia coli
Description: as §1, §2, §3, §4, §5

E. coli 3140 = assay: as above; type: cell-based, Escherichia coli
Description: as §1, §2, §3, §4, §5

E. coli 1376 = assay: as above; type: cell-based, Escherichia coli
Description: as §1, §2, §3, §4, §5

K. pneumoniae 1746 = assay: as above; type: cell-based, Klebsiella pneumoniae
Description: as §1, §2, §3, §4, §5

K. pneumoniae 1711 = assay: as above; type: cell-based, Klebsiella pneumoniae; conditions: Table S1, K. pneumoniae 1711
Description: as §1, §2, §3, §4, §5

K. pneumoniae 311 = assay: as above; type: cell-based, Klebsiella pneumoniae
Description: as §1, §2, §3, §4, §5

K. pneumoniae 1745 = assay: as above; type: cell-based, Klebsiella pneumoniae; conditions: Table S1, K. pneumoniae 1745
Description: as §1, §2, §3, §4, §5

K. pneumoniae = assay: Checkerboard assay with meropenem
Description: (§6) The synergistic effect of the selected peptides and meropenem was examined using a checkerboard assay. This method investigates the interaction between various antimicrobial agents and their combined effectiveness against bacteria. […] It determines whether the combined agents act synergistically, additively, or antagonistically to identify combinations that can reduce drug resistance.
(§7) The rows contain two-fold dilutions of meropenem, while we reported a two-fold serial dilution of AMPs in the columns.
(§8) The checkerboard test was carried out to assess the antibacterial activity of peptides in combination with antibiotics. The test was performed by preparing the bacterial inoculum in the same manner as the tests described above. Non-toxic concentrations of all peptides and serial dilutions of meropenem were inoculated in a 96-well plate either alone or in combination. After 20 h, the plate was read at OD600, and the Fractional Inhibitory Concentration (FICI) was calculated according to the following formula:FICI = FIC (A) + FIC (B)
(§9) FIC (A) = MIC peptide in combination/MIC peptide alone
(§10) FIC (B) = MIC meropenem in combination/MIC Meropenem alone

E. coli = assay: Checkerboard assay with meropenem
Description: as §6, §7, §8, §9, §10

[1] = Escherichia coli, read-out: MIC
[2] = Klebsiella pneumoniae, read-out: MIC

Molecule	MIC (E. coli 716; Escherichia coli, 716)	Interpretation (E. coli 716; Table S1, E. coli 716)	MIC (E. coli 2267; [1])	Interpretation (E. coli 2267)	Interpretation (E. coli 1441; Table S1, E. coli 1441)	Interpretation (E. coli 3140; Table S1, E. coli 3140)	Interpretation (E. coli 1376; Table S1, E. coli 1376)	Interpretation (K. pneumoniae 1746; Table S1, K. pneumoniae 1746)	Interpretation (K. pneumoniae 1711)	Interpretation (K. pneumoniae 311; Table S1, K. pneumoniae 311)	Interpretation (K. pneumoniae 1745)	MIC (E. coli 1441; Table S1, E. coli 1441)	MIC (E. coli 1376; Table S1, E. coli 1376)	MIC (K. pneumoniae 1746; Table S1, K. pneumoniae 1746)	MIC (K. pneumoniae 1711)	MIC (K. pneumoniae 311; Table S1, K. pneumoniae 311)	MIC (K. pneumoniae 1745)	MIC (E. coli 716; Table S1, E. coli 716)	MIC (E. coli 2267)	MIC (E. coli 3140; Table S1, E. coli 3140)	further results
C[C@H]1COc2c(N3CCN(C)CC3)c(F)cc3c(=O)c(C(=O)O)cn1c23 [Levofloxacin]	> 1 µg/mL	R	> 1 µg/mL	R	S	S	R	I	R	R	R	–	–	–	–	–	–	–	–	–	MIC (E. coli 1441; Escherichia coli, 1441): ≤ 0.25 µg/mL; MIC (E. coli 3140; Escherichia coli, 3140): ≤ 0.25 µg/mL; MIC (E. coli 1376; Escherichia coli, 1376): > 1 µg/mL; MIC (K. pneumoniae 1746; Klebsiella pneumoniae, 1746): 1 µg/mL (≈ 2.77 µM); MIC (K. pneumoniae 1711; [2]): > 1 µg/mL; MIC (K. pneumoniae 311; Klebsiella pneumoniae, 311): > 1 µg/mL; MIC (K. pneumoniae 1745; [2]): > 1 µg/mL
C[C@@H](O)[C@H]1C(=O)N2C(C(=O)O)=C(S[C@@H]3CN[C@H](C(=O)N(C)C)C3)[C@H](C)[C@H]12 [Meropenem]	> 16 µg/mL	R	> 16 µg/mL	R	S	S	R	S	R	–	R	–	–	–	–	–	–	–	–	–	MIC (K. pneumoniae; Klebsiella pneumoniae, read-out: MIC of meropenem): 5 µg/mL; MIC of antibiotic (meropenem) in combination (K. pneumoniae; combined with AR23 at 3.125 μM): 0.625 µg/mL; MIC of antibiotic (meropenem) in combination (K. pneumoniae; combined with RV-23 at 3.125 μM): 0.625 µg/mL; MIC (E. coli; Escherichia coli, read-out: MIC of meropenem): 5 µg/mL; MIC of antibiotic (meropenem) in combination (E. coli; combined with AR23 at 6.25 μM): 1.25 µg/mL; MIC of antibiotic (meropenem) in combination (E. coli; combined with Hylin-a1 at 3.125 μM): 2.5 µg/mL; MIC of antibiotic (meropenem) in combination (E. coli; combined with RV-23 at 6.25 μM): 2.5 µg/mL; MIC (E. coli 1441; Escherichia coli, 1441): 1 µg/mL (≈ 2.61 µM); MIC (E. coli 3140; Escherichia coli, 3140): 0.5 µg/mL (≈ 1.3 µM); MIC (E. coli 1376; Escherichia coli, 1376): > 16 µg/mL; MIC (K. pneumoniae 1746; Klebsiella pneumoniae, 1746): 1 µg/mL (≈ 2.61 µM); MIC (K. pneumoniae 1711; [2]): > 16 µg/mL; MIC (K. pneumoniae 1745; [2]): > 16 µg/mL
NC[C@H]1O[C@H](O[C@H]2[C@H](O)[C@@H](O[C@H]3O[C@H](CO)[C@@H](O)[C@H](N)[C@H]3O)[C@H](N)C[C@@H]2N)[C@H](N)C[C@@H]1O [Tobramycin]	≤ 1 µg/mL	S	≤ 1 µg/mL	S	S	S	R	R	R	R	R	–	–	–	–	–	–	–	–	–	MIC (E. coli 1441; Escherichia coli, 1441): ≤ 1 µg/mL; MIC (E. coli 3140; Escherichia coli, 3140): ≤ 1 µg/mL; MIC (E. coli 1376; Escherichia coli, 1376): > 4 µg/mL; MIC (K. pneumoniae 1746; Klebsiella pneumoniae, 1746): > 4 µg/mL; MIC (K. pneumoniae 1711; [2]): > 4 µg/mL; MIC (K. pneumoniae 311; Klebsiella pneumoniae, 311): > 4 µg/mL; MIC (K. pneumoniae 1745; [2]): > 4 µg/mL
Amoxicillin/clavulanate	–	R	–	R	R	R	R	R	R	R	R	> 32/2	> 32/2	> 32/2	> 32/2	> 32/2	> 32/2	–	–	–	–
Ceftazidime-avibactam	–	S	–	S	S	S	S	R	R	S	R	–	–	> 8/4	> 8/4	1/ 4	> 8/4	8/4	8/4	–	–
Ceftolozano tazobactam	–	R	–	R	R	R	R	R	R	R	R	> 4/4	> 4/4	> 4/4	> 4/4	> 4/4	> 4/4	> 4/4	> 4/4	> 4/4	–
Meropenem-vaborbactam	–	R	–	R	S	S	R	S	R	S	R	≤ 2/8	> 8/8	≤ 2/8	> 8/8	4/ 8	> 8/8	> 32/2	–	≤ 2/8	–
Piperacillin/tazobactam	–	R	–	R	R	R	R	R	R	R	R	> 64/4	> 64/4	32/4	> 64/4	> 64/4	> 64/4	> 64/4	> 64/4	> 64/4	–
Trimethoprim/sulfamethoxazole	–	R	–	R	S	S	R	S	R	S	R	≤ 1/19	> 4/76	≤ 1/19	> 4/76	2/38	> 4/76	> 4/76	> 4/76	≤ 1/19	–
